We go through four molecules from publication PMC8396344, “Palmitoylation of Prolactin-Releasing Peptide Increased Affinity for and Activation of the GPR10, NPFF-R2 and NPFF-R1 Receptors: In Vitro Study” (International Journal of Molecular Sciences, 2021).

Non-standard residues stand in square brackets, D forms with d. Residues, ends and D or L forms follow the SMILES beside them. No end group written: not given here. NMeF = CN[C@@H](Cc1ccccc1)C(=O)O

Test [1] deals with T1, GPR10 (Homo sapiens, UniProt P49683).
T1 construct: host or cells: CHO-K1
T1 sequence (P49683 1-370): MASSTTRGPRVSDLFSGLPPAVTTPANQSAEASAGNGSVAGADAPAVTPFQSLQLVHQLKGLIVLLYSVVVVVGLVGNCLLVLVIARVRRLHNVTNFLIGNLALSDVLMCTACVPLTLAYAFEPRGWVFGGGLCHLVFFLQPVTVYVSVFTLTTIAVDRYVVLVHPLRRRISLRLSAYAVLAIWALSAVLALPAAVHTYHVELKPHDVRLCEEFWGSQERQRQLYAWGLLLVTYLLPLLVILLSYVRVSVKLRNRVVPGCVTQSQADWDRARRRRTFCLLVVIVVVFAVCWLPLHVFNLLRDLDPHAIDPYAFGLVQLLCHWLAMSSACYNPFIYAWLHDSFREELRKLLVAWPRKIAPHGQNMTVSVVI
Description: Cell signaling by immunoblotting, CHO-K1 cells expressing GPR10. In kind it is cell-based. To be noted: dose-response 10^−11 to 10^−5 M, 5 min, 37 °C, immunoblot, at least two experiments. On the procedure: (§1) Activation of signaling pathways was studied in the CHO-K1 cell lines containing GPR10, NPFF-R2 and NPFF-R1. Cells were seeded in 24-well plates at 30,000 cells/well in assay medium (growth medium without selective antibiotics) and were grown for 2 days. The day before the experiment, the medium was changed to serum-free medium. […] Cells were lysed with Laemmli sample buffer (62.5 mM Tris-HCl at pH 6.8, 2% SDS, 10% glycerol, 0.01% bromophenol blue, 5% β-mercaptoethanol, 50 mM NaF, and 1 mM Na3VO4). Samples were stored at −20 °C. Electrophoresis and immunoblotting were performed as described previously. For detection of signaling pathways, primary monoclonal antibodies (see Table 5 for the antibodies used) purchased from Cell Signaling Technology (Danvers, MA, USA) were used.
(§2) Experiments using immunoblotting were analyzed using one-way ANOVA followed by Dunnett’s post hoc test; p < 0.05 was considered statistically significant. Dose-response curves were obtained from nonlinear regression.

Test [2] concerns the target T2, NPFF-R2 (Homo sapiens, UniProt Q9Y5X5).
T2 construct: host or cells: CHO-K1 (AequoScreen, co-expressing aequorin)
The test can be described thus: Cell signaling by immunoblotting, CHO-K1 cells expressing NPFF-R2. In kind it is cell-based. The note with it: dose-response 10^−11 to 10^−5 M, 5 min, 37 °C, immunoblot, at least two experiments. On the procedure: as §1, with “Cells” for “Activation of signaling pathways was studied in the CHO-K1 cell lines containing GPR10, NPFF-R2 and NPFF-R1. Cells”
as §2

The target in the next test is kappa-opioid receptor (UniProt P41145 1-380). The test can be described thus: radioligand binding; competition with [^125I]-dynorphin A on plasma membranes of CHO-K1 cells with KOR, 5 µg protein/tube; 50 mM Tris-HCl pH 7.4, 60 mM NaCl, 1 mM MgCl2, 0.5% BSA; 60 min at RT; filtration; Ki by the Cheng-Prusoff equation.
Test [3] deals with T1, GPR10. Description: Competitive binding, [^125I]-PrRP31, CHO-K1 cells expressing GPR10. The note with it: competition with [^125I]-PrRP31, CHO-K1 cells expressing human GPR10; mean ± SEM, 2–5 independent experiments in duplicates; Cheng-Prusoff; read-out: Ki GPR10 [^125I]-PrRP31.
In test [4] the target is T2, NPFF-R2. Description: Intracellular Ca^2+ mobilization, AequoScreen CHO-K1 cells with NPFF-R2. In kind it is cell-based. To be noted: CHO-K1 NPFF-R2 aequorin cells; peptides 10^−12 to 10^−5 M; mean ± SEM, three times in duplicates; read-out: EC50 intracellular Ca^2+ release, NPFF-R2. On the procedure:
The intracellular Ca^2+ level was measured using the AequoScreen stable CHO-K1 cell line containing NPFF-R2 purchased from Perkin Elmer according to the manufacturer’s protocol. Cells at 80–90% confluence cultured in media without selective antibiotics were detached (PBS pH 7.4 + 0.5 mM EDTA) and centrifuged. Cells resuspended in phenol red-free DMEM with 0.1% protease-free BSA and 5 µM coelenterazine h (Thermo Fisher Scientific Inc. Brand) were seeded at 50,000 cells/well in 96-well plates and incubated in the dark at RT with gentle agitation for 4 h. Peptides were tested at concentrations from 10^−12 to 10^−5 M. Luminescent light emission was recorded using a FlexStation 3 plate reader.
Ca^2+ release assay data are shown as the percentage of maximal response, and the results were analyzed by nonlinear regression as log agonist versus response using GraphPad software. Data are representative of at least three experiments, each performed in duplicate.

Test [5] deals with T3, NPFF-R2 (UniProt Q9Y5X5 1-522).
T3 construct: also called NPFF-2R; source: CHO-K1 cell line (AequoScreen), bought: Perkin Elmer
The test can be described thus: radioligand binding; competition with [^125I]-1DMe on plasma membranes of CHO-K1 cells with NPFF-R2 or NPFF-R1, 5 µg protein/tube; 50 mM Tris-HCl pH 7.4, 60 mM NaCl, 1 mM MgCl2, 0.5% BSA; 60 min at RT; filtration; Ki by the Cheng-Prusoff equation. To be noted: one partner purified.

For another test, the target named is T4, NPFF-R1 (UniProt Q9GZQ6 1-430).
T4 construct: also called NPFF-1R; source: CHO-K1 cell line, bought: Perkin Elmer
The description is as above. To be noted: one partner purified.

“SRAHQHSMETRTPDINPAWYTGRGIRPVGRF-NH2 [PrRP31, prolactin-releasing peptide 31, reference compound]”: the “EC50 of ERK activation” value on GPR10 [1] was “in the nanomolar range”; at NPFF-R2 [2], “in nanomolar concentrations”. What is called Ki is a measure of affinity in units of concentration, obtained from inhibition or displacement. Regarding [D-Pro10]-dynorphin A (peptide), the Ki with kappa-opioid receptor was determined as 0.36 nM.

In general, EC50 refers to the concentration that produces a half-maximal response. Take `CC(C)C[C@H](NC(=O)[C@H](N)Cc1ccc(O)cc1)C(=O)N(C)[C@@H](Cc1ccccc1)C(=O)N[C@@H](CCC(N)=O)C(=O)N1CCC[C@H]1C(=O)N[C@@H](CCC(N)=O)C(=O)N[C@@H](CCCN=C(N)N)C(=O)N[C@@H](Cc1ccccc1)C(N)=O` [1DMe] (H-[dY]L[NMeF]QPQRF-NH2): on GPR10 [3], the Ki is greater than 10000 nM. The EC50 on NPFF-R2 [4] was found to be 0.82 ± 0.15 nM.

B1: 1DMe (peptide)
peptide: [dY]L[NMeF]QPQRF-NH2
modifications: N-terminus assumed
SMILES: CC(C)C[C@H](NC(=O)[C@H](N)Cc1ccc(O)cc1)C(=O)N(C)[C@@H](Cc1ccccc1)C(=O)N[C@@H](CCC(N)=O)C(=O)N1CCC[C@H]1C(=O)N[C@@H](CCC(N)=O)C(=O)N[C@@H](CCCNC(=N)N)C(=O)N[C@@H](Cc1ccccc1)C(N)=O
notes: numbers count on: the peptide NPFF; source: synthetic peptide, purified (HPLC, purity greater than 95%)
B1: the Ki is 1.03 nM in the test with NPFF-R2 [5] and 0.79 nM with NPFF-R1.
